According to article PMC11412156 (Journal of medicinal chemistry, 2024):

How the values were obtained:
Format in all cases: biochemical
HDAC11 = biological target: T1, HDAC11 (Homo sapiens, UniProt Q96DB2); assay: HDAC enzyme-based fluorogenic assay, HDAC11; conditions: read-out: HDAC11 IC50; mean of at least three experiments
T1 sequence (Q96DB2 1-347): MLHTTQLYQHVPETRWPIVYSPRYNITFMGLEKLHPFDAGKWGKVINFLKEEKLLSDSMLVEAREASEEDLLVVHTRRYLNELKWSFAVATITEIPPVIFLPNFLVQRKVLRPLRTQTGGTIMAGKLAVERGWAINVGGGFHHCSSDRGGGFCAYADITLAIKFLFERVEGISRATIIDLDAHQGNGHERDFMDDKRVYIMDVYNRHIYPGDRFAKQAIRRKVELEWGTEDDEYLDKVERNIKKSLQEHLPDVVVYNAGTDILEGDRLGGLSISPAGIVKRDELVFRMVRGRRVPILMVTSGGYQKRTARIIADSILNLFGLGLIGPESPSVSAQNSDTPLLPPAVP

HDAC1 = HDAC1 (Homo sapiens, UniProt Q13547); assay: HDAC enzyme-based fluorogenic assay, HDAC1; conditions: read-out: HDAC1 IC50; mean of at least three experiments
HDAC8 = biological target: T2, HDAC8 (Homo sapiens, UniProt Q9BY41); assay: HDAC enzyme-based fluorogenic assay, HDAC8; conditions: read-out: HDAC8 IC50; mean of at least three experiments
T2 sequence (Q9BY41 1-377): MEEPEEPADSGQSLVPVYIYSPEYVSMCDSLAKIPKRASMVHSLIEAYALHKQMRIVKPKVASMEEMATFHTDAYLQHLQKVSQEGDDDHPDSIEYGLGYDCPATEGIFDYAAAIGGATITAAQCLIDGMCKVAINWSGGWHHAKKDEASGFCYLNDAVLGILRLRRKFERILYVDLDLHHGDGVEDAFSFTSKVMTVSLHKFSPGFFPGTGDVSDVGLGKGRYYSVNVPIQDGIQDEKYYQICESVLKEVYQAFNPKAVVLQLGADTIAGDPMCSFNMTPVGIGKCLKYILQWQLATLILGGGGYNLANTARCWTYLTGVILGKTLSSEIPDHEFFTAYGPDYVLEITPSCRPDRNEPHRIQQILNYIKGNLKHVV

HDAC3 = HDAC3 (Homo sapiens, UniProt O15379); assay: HDAC enzyme-based fluorogenic assay, HDAC3; conditions: read-out: HDAC3 IC50; mean of at least three experiments
HDAC2 = HDAC2 (Homo sapiens, UniProt Q92769); assay: HDAC enzyme-based fluorogenic assay, HDAC2; conditions: read-out: HDAC2 IC50; mean of at least three experiments
HDAC6 = biological target: T3, HDAC6 (Homo sapiens, UniProt Q9UBN7); assay: HDAC enzyme-based fluorogenic assay, HDAC6; conditions: for HDAC6 inhibitor rate: final concentration of 2 μM, preliminary screen; for IC50: read-out: HDAC6 IC50, mean of at least three experiments
T3 sequence (Q9UBN7 1-1215): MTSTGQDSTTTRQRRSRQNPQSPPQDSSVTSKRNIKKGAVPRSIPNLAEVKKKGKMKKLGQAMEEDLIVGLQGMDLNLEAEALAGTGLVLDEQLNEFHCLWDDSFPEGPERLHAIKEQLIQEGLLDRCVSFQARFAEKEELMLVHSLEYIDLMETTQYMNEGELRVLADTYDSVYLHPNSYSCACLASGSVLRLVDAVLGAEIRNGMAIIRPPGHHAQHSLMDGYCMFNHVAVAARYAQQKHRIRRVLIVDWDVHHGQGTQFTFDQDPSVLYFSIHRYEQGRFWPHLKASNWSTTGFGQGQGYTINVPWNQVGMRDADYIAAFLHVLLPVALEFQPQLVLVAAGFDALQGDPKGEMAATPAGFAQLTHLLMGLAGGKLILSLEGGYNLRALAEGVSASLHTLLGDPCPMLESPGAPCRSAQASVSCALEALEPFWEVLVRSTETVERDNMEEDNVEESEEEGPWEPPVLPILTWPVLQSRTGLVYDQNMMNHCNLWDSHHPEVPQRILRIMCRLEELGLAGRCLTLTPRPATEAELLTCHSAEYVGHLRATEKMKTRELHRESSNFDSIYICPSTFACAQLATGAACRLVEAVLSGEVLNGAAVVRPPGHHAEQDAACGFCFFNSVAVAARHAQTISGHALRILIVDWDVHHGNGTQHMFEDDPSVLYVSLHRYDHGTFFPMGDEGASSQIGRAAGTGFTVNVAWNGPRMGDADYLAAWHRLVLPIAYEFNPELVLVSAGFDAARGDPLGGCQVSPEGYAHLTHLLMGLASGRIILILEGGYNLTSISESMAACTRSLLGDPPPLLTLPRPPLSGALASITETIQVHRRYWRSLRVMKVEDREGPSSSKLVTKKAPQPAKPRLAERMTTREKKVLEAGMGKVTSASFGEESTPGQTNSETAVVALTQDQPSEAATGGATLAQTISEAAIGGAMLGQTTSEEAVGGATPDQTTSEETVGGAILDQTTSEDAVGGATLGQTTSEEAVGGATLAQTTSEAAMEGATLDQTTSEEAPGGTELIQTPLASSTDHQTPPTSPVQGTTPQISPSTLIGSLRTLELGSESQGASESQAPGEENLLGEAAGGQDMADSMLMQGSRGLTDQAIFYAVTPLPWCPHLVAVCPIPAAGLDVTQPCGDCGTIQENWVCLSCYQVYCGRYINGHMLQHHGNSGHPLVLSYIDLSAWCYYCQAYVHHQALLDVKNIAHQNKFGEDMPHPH

HDAC2, sequence (Q92769 whole entry): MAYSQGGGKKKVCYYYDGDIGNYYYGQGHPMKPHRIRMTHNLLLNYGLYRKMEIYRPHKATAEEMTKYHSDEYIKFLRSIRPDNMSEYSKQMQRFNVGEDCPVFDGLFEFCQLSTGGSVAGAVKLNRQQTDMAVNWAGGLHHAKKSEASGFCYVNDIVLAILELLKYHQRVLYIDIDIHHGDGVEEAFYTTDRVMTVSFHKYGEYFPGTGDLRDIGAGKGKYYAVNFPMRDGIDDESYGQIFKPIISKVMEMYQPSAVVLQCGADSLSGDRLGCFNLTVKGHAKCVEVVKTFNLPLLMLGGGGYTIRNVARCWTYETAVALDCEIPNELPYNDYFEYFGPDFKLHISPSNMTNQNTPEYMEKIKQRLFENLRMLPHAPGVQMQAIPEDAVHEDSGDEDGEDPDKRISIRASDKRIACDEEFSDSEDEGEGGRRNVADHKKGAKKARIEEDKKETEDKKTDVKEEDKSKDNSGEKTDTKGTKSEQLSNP
HDAC1, sequence (Q13547 whole entry): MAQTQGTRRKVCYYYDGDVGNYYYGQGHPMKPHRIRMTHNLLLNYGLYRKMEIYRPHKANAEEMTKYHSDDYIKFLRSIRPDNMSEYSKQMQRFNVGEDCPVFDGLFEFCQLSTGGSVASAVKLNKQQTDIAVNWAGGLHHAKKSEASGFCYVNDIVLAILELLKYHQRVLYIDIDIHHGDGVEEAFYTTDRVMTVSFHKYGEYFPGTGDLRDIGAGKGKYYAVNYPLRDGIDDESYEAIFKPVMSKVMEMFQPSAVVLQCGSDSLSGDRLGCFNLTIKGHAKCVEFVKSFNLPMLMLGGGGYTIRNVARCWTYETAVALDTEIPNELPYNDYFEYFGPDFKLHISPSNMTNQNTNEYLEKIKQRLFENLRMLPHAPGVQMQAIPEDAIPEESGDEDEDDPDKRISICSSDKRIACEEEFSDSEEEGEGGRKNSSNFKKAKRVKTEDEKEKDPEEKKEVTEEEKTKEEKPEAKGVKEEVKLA
HDAC3, sequence (O15379 whole entry): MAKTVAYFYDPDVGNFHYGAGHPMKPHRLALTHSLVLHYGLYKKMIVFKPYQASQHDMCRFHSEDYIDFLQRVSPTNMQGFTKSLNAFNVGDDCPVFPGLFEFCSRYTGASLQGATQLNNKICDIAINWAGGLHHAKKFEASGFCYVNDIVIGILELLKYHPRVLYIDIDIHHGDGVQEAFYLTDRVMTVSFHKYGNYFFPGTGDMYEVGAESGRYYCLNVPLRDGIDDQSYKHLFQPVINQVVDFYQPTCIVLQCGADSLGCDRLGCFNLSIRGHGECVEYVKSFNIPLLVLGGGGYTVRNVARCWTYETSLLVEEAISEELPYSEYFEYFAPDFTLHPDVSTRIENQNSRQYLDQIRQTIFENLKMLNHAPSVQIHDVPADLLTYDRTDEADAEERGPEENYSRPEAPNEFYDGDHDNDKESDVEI
HDAC3, sequence (Q9Y618 395-489 partner limits assumed): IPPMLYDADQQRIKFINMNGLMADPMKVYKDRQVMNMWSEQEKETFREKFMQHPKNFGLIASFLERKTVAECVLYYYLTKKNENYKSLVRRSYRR

## C[C@]12CC3CC(Nc4c(Nc5ccc(C(=O)N6CCC[C@H](C(=O)NCCCCCC(=O)NO)C6)cc5)c(=O)c4=O)(C1)C[C@@](C)(C3)C2 [Compound 40c, (S)-1-(4-((2-(((1r,3R,5S,7r)-3,5-Dimethyladamantan-1-yl)amino)-3,4-dioxocyclobut-1-en-1-yl)amino)benzoyl)-N-(6-(hydroxyamino)-6-oxohexyl)piperidine-3-carbo-xamide]
HDAC11
  IC50: 84 nM
HDAC1
  IC50: 1030 nM
HDAC8
  IC50: 520 nM
HDAC3
  IC50: 4150 nM
HDAC2
  IC50: 3100 nM
HDAC6
  HDAC6 inhibitor rate: 98.49%
  IC50: 282 nM

## CC12CC3CC(C)(C1)CC(Nc1c(Nc4ccc(C(=O)N5CCC[C@H](C(=O)NCCCCCCC(=O)NO)C5)cc4)c(=O)c1=O)(C3)C2 [Compound 40d, (S)-1-(4-((2-(((1r,3R,5S,7r)-3,5-Dimethyladamantan-1-yl)amino)-3,4-dioxocyclobut-1-en-1-yl)amino)benzoyl)-N-(7-(hydroxyamino)-7-oxoheptyl)piperidine-3-carboxamide]
HDAC11
  IC50: 241 nM
HDAC1
  IC50: 415 nM
HDAC8
  IC50: 158 nM
HDAC3
  IC50: 1450 nM
HDAC2
  IC50: 2530 nM
HDAC6
  HDAC6 inhibitor rate: 99.66%
  IC50: 162 nM
